Measurements as given in patent publication US6878715B1, “Therapeutic compounds for inhibiting interleukin-12 signals and method for using same” (Cell Therapeutics, Inc., priority 1994, dated 2005).

Tested on: adoptive transfer EAE
Assay: Adoptive transfer experimental allergic encephalomyelitis (EAE) model
Format: in vivo, mice
Details: bid, by gavage, first 5 days; vs vehicle only; FIG. 2
Experimental: An adoptive transfer experimental allergic encephalomyelitis (EAE) model was used, in which the splenic T cells from actively immunized mice were cultured for 4 days in antigen-containing (myelin basic protein) medium. The cells were then transferred to naive recipients, which were then evaluated for clinical changes in motor nerve function in the presence or absence of treatment with LSF or the compound of Example 22 (CT11558). Both compounds were administered on a bid schedule, by gavage, for the first 5 days.

Row | Structure (SMILES) | magnitude of observable clinical deficits (motor nerve function) | onset of observable clinical deficits (motor nerve function)
1 | C[C@@H](O)CCCCn1c(=O)c2c(ncn2C)n(C)c1=O [LSF, (R)-1-(5-Hydroxyhexyl)-3,7-dimethylxanthine, reference compound] | decrease in the magnitude | significant delay in the onset
2 | C[C@H](CCCCn1c(=O)c2c(ncn2C)n(C)c1=O)N(C)C [CT11558, (R)-1-(5-N,N-dimethylaminohexyl)-3,7-dimethylxanthine] | decrease in the magnitude | significant delay in the onset

Tested on: IL-12 induced IFN-γ secretion
Assay: IL-12 induced IFN-γ secretion (interferon gamma induction) assay in splenocyte culture
Format: cell-based
Details: compound added to a culture of splenocytes; FIG. 1
Experimental: The ability of IL-12 to induce generation of Th1 cells is aided by IFN-γ, a cytokine which is known to be induced by IL-12 itself. (R)-3-(N-biotinyl-6-aminohexyl)-1-(5-hydroxyhexyl)-7-methylxanthine (CT12460) and (R)-3-(N-biotinyl-2-aminoethyl)-1-(5-hydroxyhexyl)-7-methylxanthine (CT13410) were tested in an interferon gamma (IFN-γ) induction assay as described in Kobayashi, M., et al., “Identification and Purification of Natural Killer Cell Stimulatory Factor (NKSF), A Cytokine with Multiple Biologic Effects on Human Lymphocytes,” J. Exp. Med.U., 170:827-845 (at 829, 830 and 836) (1989). See also, Wolf, S., et al., “Interluekin 12: A Key Modulator of Immune Function,” Stem Cells, 12:154-168 (1994) and Trinchieri, supra.

Row | Structure (SMILES) | IL-12 induced IFN-γ secretion
3 | C[C@@H](O)CCCCn1c(=O)c2c(ncn2C)n(CCCCCCNC(=O)CCCC[C@@H]2SC[C@@H]3NC(=O)N[C@@H]32)c1=O [CT12460, (R)-3-(6-biotinylamidohexyl)-1-(5-hydroxyhexyl)-7-methylxanthine] | inhibited
4 | C[C@@H](O)CCCCn1c(=O)c2c(ncn2C)n(CCNC(=O)CCCC[C@@H]2SC[C@@H]3NC(=O)N[C@@H]32)c1=O [CT13410, (R)-3-(6-biotinylamidoethyl)-1-(5-hydroxyhexyl)-7-methylxanthine] | inhibited

Tested on: IL-12 induced Th1 differentiation (splenic T cells)
Assay: IL-12 dependent in vitro T-helper cell (Th1) differentiation assay, IFN-γ production upon secondary anti-CD3 stimulation
Format: cell-based
Details: read-out: IC50, inhibition of IL-12 induced Th1 differentiation as defined by IFN-γ production
Experimental: This example illustrates the inventive compounds' ability to suppress Th1 differentiation in vitro by blocking IL-12 signalling. Each of compounds A through Y were tested in an IL-12 dependent in vitro T-helper cell differentiation assay as described in LeGross et al., J. Exp. Med., 172:921-929 (1990). Recombinant IL-12 was used to induce Th1 differentiation. Spenic T cells were purified utilizing the antibodies RA3-3A1/6.1 (anti-B220), J11d and MAR18.5 (anti-rat kappa chain) to deplete the B cells via complement mediated toxicity following the procedure set forth in Klaus et al., J. Immunol., 149:1867-1875 (1992). Splenic T cells were stimulated at 5×10^5/ml with insoluble anti-CD3 alone (145-2C11, Pharmingen, San Diego, Calif.), or anti-CD3 and 5 U/ml IL-12, with and without each inventive compound. After seven days, equal numbers of viable cells were restimulated for 24 hours with anti-CD3 without the inventive compounds, and the supernatants were collected and assayed for IFN-γ production. IFN-γ and IL-4 levels were measured by Interest kits from Genzyme specific for IFN-γ and IL-4.
Th1 differentiation was induced by culturing anti-CD3 stimulated T cells in the presence of exogenous IL-12. […] The values in the “IC50 μM” column were determined by measuring the inhibition of IL-121 induced Th1 differentiation as defined by IFN-γ production upon secondary stimulation with anti-CD3 alone. None of the compounds affected the viability or recovery of T cells after one week of culture.

Row | Structure (SMILES) | IC50 [µM]
5 | CNc1nc2c([nH]1)c(=O)n(CCCC[C@@H](C)O)c(=O)n2C [CT12447, (R)-1-(5-hydroxyhexyl)-3-methyl-8-methylaminoxanthine] | 25
6 | C[C@@H](O)CCCCn1c(=O)c2[nH]c(=O)[nH]c2n(C)c1=O [CT12452, (R)-1-(5-hydroxyhexyl)-3-methyluric acid] | 35

Same assay, conditions: splenic T cells, anti-CD3 and 5 U/ml IL-12, seven days with compound, restimulated 24 hours with anti-CD3 alone, read-out: IC50, inhibition of IL-12 induced Th1 differentiation as defined by IFN-γ production

Row | Structure (SMILES) | IC50 [µM]
7 | C[C@H](O)CCCCn1c(=O)c2c(ncn2Cc2ccccc2)n(C)c1=O [CT22404, (S)-1-(5-Hydroxyhexyl)-7-benzyl-3-methylxanthine] | 10
8 | C[C@@H](O)CCCCn1c(=O)c2c(ncn2C)n(CCCCCCNC(=O)CCCC[C@@H]2SC[C@@H]3NC(=O)N[C@@H]32)c1=O [CT12460, (R)-3-(6-biotinylamidohexyl)-1-(5-hydroxyhexyl)-7-methylxanthine] | 21.8
9 | Cc1c[nH]c2c1c(=O)n(CCCC[C@@H](C)O)c(=O)n2C [CT12459, (R)-1,9-dimethyl-3-(5-hydroxyhexyl)-2,4-pyrrolo[2,3-d]pyrimidinedione] | 17
10 | Cc1nc2c(c(=O)n(CCCC[C@@H](C)O)c(=O)n2C)n1Cc1ccccc1 [CT12407, (R)-1-(5-hydroxyhexyl)-7-benzyl-3,8-dimethylxanthine] | 30
11 | C[C@@H](O)CCCCn1c(=O)n(C)c(=O)c2c1ncn2C [CT11495, (R)-3-(5-Hydroxyhexyl)-1,7-dimethylxanthine] | 35
12 | C[C@@H](O)CCCCn1c(=O)c2c(ncn2Cc2ccccc2)n(C)c1=O [CT12404] | 28
13 | CC(CCCCn1c(=O)c2c(ncn2C)n(C)c1=O)NO (centres unmarked) [CT7549, 1-(5-(N-Hydroxy)aminohexyl)-3,7-dimethylxanthine] | 21
14 | C[C@@H](O)CCCCn1c(=O)c2c(ncn2C)n(Cc2ccco2)c1=O [CT12422, (R)-3-(2-Furylmethyl)-1-(5-hydroxyhexyl)-7-methylxanthine] | 19
15 | C[C@H](CCCCn1c(=O)c2c(ncn2C)n(C)c1=O)OP(=O)(O)O [CT17557] | 9
16 | C[C@@H](O)CCCCn1c(=O)c2c([nH]c(=O)n2C)n(C)c1=O [CT11499, (R)-1-(5-Hydroxyhexyl)-3,7-dimethyluric acid] | 30
17 | Cc1cn(C)c2c1c(=O)n(CCCC[C@@H](C)O)c(=O)n2C [CT12458, (R)-3-(5-Hydroxyhexyl)-1,7,9-dimethyl-2,4-pyrrolo[2,3-d]pyrimidinedione] | 27

The remaining lines, values ahead:

Row | IC50 [µM] | Structure (SMILES)
18 | 24.7 | CNc1nc2c(c(=O)n(CCCC[C@@H](C)O)c(=O)n2C)n1C [CT12481, (R)-3,7-dimethyl-1-(5-hydroxyhexyl)-8-N-methylaminoxanthine]
19 | 31 | C[C@@H](O)CCCCn1c(=O)c2[nH]nnc2n(C)c1=O [CT12463, (R)-1-(5-Hydroxyhexyl)-3-methyl-8-azaxanthine]
20 | 17 | C[C@@H](O)CCCCn1c(=O)c2nsnc2n(C)c1=O [CT12461, (R)-3-(5-hydroxyhexyl)-1-methyl-[1,2,5]thiadiazolo[3,4]pyrimidine-2,4-dione]
21 | 20 | CSc1nc2c([nH]1)c(=O)n(CCCC[C@@H](C)O)c(=O)n2C [CT12490, (R)-1-(5-Hydroxyhexyl)-3-methyl-8-methylsulfanylxanthine]
22 | 12 | C[C@@H](O)CCCCn1c(=O)c2c(nnn2C)n(C)c1=O [CT12464, (R)-3,7-dimethyl-1-(5-hydroxyhexyl)-8-azaxanthine]
23 | 19 | CNCc1nc2c([nH]1)c(=O)n(CCCC[C@@H](C)O)c(=O)n2C [CT12441, (R)-1-(5-hydroxyhexyl)-3-methyl-8-(N-methyl)aminomethylxanthine]
24 | 10 | C[C@@H](O)CCCCn1c(=O)c2c(nc(N(C)C)n2C)n(C)c1=O [CT12485, (R)-3,7-Dimethyl-8-N,N-dimethylamino-1-(5-hydroxyhexyl)-xanthine]
25 | 14 | C[C@H](O)CCCCn1c(=O)c2nn(C)nc2n(C)c1=O [CT22465, (S)-3,8-dimethyl-1-(5-hydroxyhexyl)-8-azaxanthine]
26 | 9 | C[C@@H](O)CCCCn1c(=O)c2[nH]c(CN)nc2n(C)c1=O [CT12440, (R)-8-Aminomethyl-1-(5-hydroxyhexyl)-3-methylxanthine]
27 | 30 | C[C@H](O)CCCCn1c(=O)c2c(nnn2C)n(C)c1=O [CT22464, (S)-3,7-Dimethyl-1-(5-hydroxyhexyl)-8-azaxanthine]
28 | 15 | C[C@@H](O)CCCCn1c(=O)c2nn(C)nc2n(C)c1=O [CT12465, (R)-3,8-Dimethyl-1-(5-hydroxyhexyl)-8-azaxanthine]

Tested on: GVHD
Assay: Graft-versus-host disease (GVHD) model
Format: in vivo
Details: bid, by gavage, first 5 days; assessed over 36 days after adoptive transfer of cells; vs vehicle control; FIG. 3
Experimental: In a GVHD model, an irradiated F1 hybrid recipient population, bred across a parental major H2 mismatch, was infused with maternal cells activated in vitro with conconavalian A (Con A) and IL-12. LSF and the compound of Example 7 (CT12441) were compared with a vehicle control for efficacy. Both compounds were administered on a bid schedule, by gavage, for the first 5 days.

Row | Structure (SMILES) | survival
29 | C[C@@H](O)CCCCn1c(=O)c2c(ncn2C)n(C)c1=O [LSF, (R)-1-(5-Hydroxyhexyl)-3,7-dimethylxanthine, reference compound] | significant increase of survival
30 | CNCc1nc2c([nH]1)c(=O)n(CCCC[C@@H](C)O)c(=O)n2C [CT12441, (R)-1-(5-hydroxyhexyl)-3-methyl-8-(N-methyl)aminomethylxanthine] | significant increase of survival
